What was measured:
[1] = Kinetic solubility in biorelevant media; type: physicochemical; details: for solubility at 10 min / solubility at 0.5 h / solubility at 1 h / solubility at 2 h / solubility at 4 h / solubility at 24 h: 37 °C; for solubility at 0.5 h: 30 min
Method: (§1) Solubility samples were prepared by weighing about 10 mg of each salt and adding 1 mL of media and vortexed briefly to obtain suspensions. […] For such instances, the solubility is calculated as greater than (>).
(§2) The sample vials were capped and wrapped in aluminum foil, and placed on a shaker at 37° C. The shaker was set at about 100 rpm and vials were removed at specified time points. The vials were observed, and the supernatants were transferred to Eppendorf tubes and centrifuged at 3K for 10 minutes. The clear supernatants were transferred to HPLC vials. The samples were diluted prior to HPLC analysis using the dilution media by 2× or used without dilution. pH was measured of the 24 hour timepoint after centrifugation using a micro pH probe.
• pH 2 buffer USP: Mixed 50 mL of 0.2M potassium chloride and 13 mL 0.2M HCl, diluted to 200 mL with water. • pH 4.5 buffer USP: 5.44 g of potassium dihydrogen phosphate was diluted to 1000 mL with water. • pH 6.8 buffer USP: Mixed 50 mL of 0.2M potassium phosphate and 22.4 mL 0.2M sodium hydroxide. Diluted with water to 200 mL. • SGF: 2.0109 g of NaCl was dissolved in water, added 7 mL of conc. HCl and diluted to 1 L. • FeSSIF: 4.0321 g of NaOH and 11.8726 g of NaCl were dissolved in water, added 8.65 mL of glacial acetic acid, […] 0.4247 g of NaOH, 3.9548 g of sodium phosphate monobasic monohydrate and 6.1900 g of NaCl were dissolved in water, adjusted the pH to 6.5 and diluted to 1 L.
Kinetic solubility was determined in biorelevant media. At each time point, the solution was analyzed by HPLC. The solid residue was analyzed by XRPD at selected time points. The pH of the solution was measured at 24 hours.

[2] = Dynamic vapor sorption (moisture uptake); type: physicochemical; details: 25° C., from 5% to 95% relative humidity
Method: Dynamic Vapor Sorption (DVS) was carried out using a TA Instruments Q5000 Dynamic Vapor Sorption analyzer. The instrument was calibrated with standard weights and a sodium bromide standard for humidity. Approximately 10-25 mg of sample was loaded into a metal-coated quartz pan for analysis. […] The movement from one step to the next occurred either after satisfying the equilibrium criterion of 0.01% weight change or, if the equilibrium criterion was not met, after one hour. The percent weight change values were calculated using Microsoft Excel®.

[3] = Pharmacokinetics / absolute bioavailability in male Sprague Dawley rats; type: in vivo; details: oral gavage, 10 mg/kg
Method: Twenty-one (21) male Sprague Dawley rats (purchased from Shanghai Laboratory Animal Center Co., Ltd., Shanghai, China) were randomized into 7 groups (3 animals per group). The animals fasted overnight, the forms of Compound 1 shown in Table 7 were administered by oral gavage, and the animals were fed 4 hours post-dose.
Blood was serially collected from each animal at 0 (pre-dose), 0.083, 0.25, 0.5, 1, 2, 4, 8, and 24 h post-dose. For each collection, the animal was restrained manually, and approximately 150 μL of blood sample was collected via the tail vein into K2EDTA tubes. Plasma samples were stored at approximately −70° C. until analysis.
To enable the calculation of absolute bioavailability, Compound 1 was formulated as a solution in 10% N-methyl-2-pyrrolidone, 10% Solutol HS 15, and 80% saline and administered at 1 mg/kg as intravenous (IV) bolus dose to a separate group of male Sprague Dawley rats, and blood samples were collected at similar timepoints to those shown above. Further, plasma samples were obtained from the collected samples and stored at approximately −70° C. until analysis.
The concentration of Compound 1 in the plasma samples was determined by LC-MS/MS analysis.
A 20 μL aliquot of each plasma sample was mixed with 200 μL of acetonitrile containing glipizide as an internal standard (40 ng/mL). The resulting mixture was vortexed at 1500 rpm for 2 min and centrifuged at 5800 rpm for 10 min. A 1 μL sample from the supernatant was injected into LC-MS/MS.
LC-MS/MS analysis was conducted on a UPLC/MS-MS (API 6500+) system under the conditions outlined in Table 8
The absolute bioavailability of each form of Compound 1 was determined by dividing the AUCinf of the form in question by the AUCinf obtained historical data by IV administration of Compound 1.

[4] = pH solubility in buffers; type: physicochemical; details: for pH (24 h): pH of solution at 24 h
Method: as §1, §2
• pH 2 buffer USP: Mixed 50 mL of 0.2M potassium chloride and 13 mL 0.2M HCl, diluted to 200 mL with water. • pH 4.5 buffer USP: 5.44 g of potassium dihydrogen phosphate was diluted to 1000 mL with water. • pH 6.8 buffer USP: Mixed 50 mL of 0.2M potassium phosphate and 22.4 mL 0.2M sodium hydroxide. Diluted with water to 200 mL. • SGF: 2.0109 g of NaCl was dissolved in water, added 7 mL of conc. HCl and diluted to 1 L. • FeSSIF: 4.0321 g of NaOH and 11.8726 g of NaCl were dissolved in water, added 8.65 mL of glacial acetic acid, adjusted the pH to 5.0 and diluted to 1 L. • FaSSIF: 0.4247 g of NaOH, 3.9548 g of sodium phosphate monobasic monohydrate and 6.1900 g of NaCl were dissolved in water, adjusted the pH to 6.5 and diluted to 1 L.
At each time point, the solution was analyzed by HPLC and residue was vacuum dried and analyzed by XRPD. The pH of the solution was measured at 24 hours.

[5] = fassif, pH 5, FaSSIF pH 5.0 (so in the source)
[6] = fessif, pH 6.5, FeSSIF pH 6.5 (so in the source)
[7] = ph 2 buffer (usp), pH 2, pH 2 (USP), 37 °C
[8] = ph 4.5 buffer (usp), pH 4.5, pH 4.5 (USP), 37 °C
[9] = ph 6.8 buffer (usp), pH 6.8, pH 6.8 (USP), 37 °C

Question: What does the source list for `Cn1c2nc(Cc3cc[nH]n3)sc2c2cnn(Cc3cccc(N)n3)c(=O)c21.O=C(O)C(O)C(O)C(=O)O` (racemic) [Form C]?
Answer: pH (24 h) ([1]; FaSSIF pH 5.0 (so in the source), pH of solution at 24 h): 4.60; pH (24 h) ([1]; FeSSIF pH 6.5 (so in the source), pH of solution at 24 h): 3.35; pH (24 h) ([1]; SGF pH 1.2, pH of solution at 24 h): 1.13; kinetic solubility, overall ([1]; all media tested): highest solubility in all media tested; solubility at 10 min [1, 5]: 650 µg/mL; solubility at 0.5 h [1, 5]: 310 µg/mL; solubility at 1 h [1, 5]: 250 µg/mL; solubility at 2 h [1, 5]: 200 µg/mL; solubility at 4 h [1, 5]: 100 µg/mL; solubility at 24 h [1, 5]: 120 µg/mL; solubility at 10 min [1, 6]: 530 µg/mL; solubility at 0.5 h [1, 6]: 860 µg/mL; solubility at 1 h [1, 6]: 910 µg/mL; solubility at 2 h [1, 6]: 990 µg/mL; solubility at 4 h [1, 6]: 810 µg/mL; solubility at 24 h [1, 6]: 20 µg/mL; solubility ([1]; sgf, pH 1.2, SGF pH 1.2, 37 °C, dissolved instantly, from total volume of media added, read-out: solubility): > 11100 µg/mL; dissolution in SGF ([1]; simulated gastric fluid (SGF)): dissolved instantly; moisture uptake (DVS) [2]: about 0.06%; absolute bioavailability, comparison with other forms [3]: higher than the measured bioavailability of the other forms of Compound 1; bioavailability ([3]; rat, plasma, po, vs historical IV AUCinf, read-out: Absolute % F): 91%; AUC(0-inf) ([3]; rat, plasma, po, fasted overnight): 14200 ng·h/mL; dissolution in 0.1N HCl ([4]; 0.1N HCl): dissolved instantly; pH (24 h) ([4]; 0.1 N HCl): 1.27; solubility ([4]; 0.1 n hcl, 37 °C, dissolved instantly, estimated by adding 100 uL aliquots, read-out: solubility): > 10900 µg/mL; pH solubility, overall ([4]; buffers pH 1 to pH 6.8): highest solubility; pH (24 h) ([4]; pH 2 (USP)): 2.52; pH (24 h) ([4]; pH 4.5 (USP)): 3.92; pH (24 h) ([4]; pH 6.8 (USP)): 3.54; solubility at 2 h [4, 7]: 3810 µg/mL; solubility at 24 h [4, 7]: 2460 µg/mL; solubility at 2 h [4, 8]: 150 µg/mL; solubility at 24 h [4, 8]: 120 µg/mL; solubility at 2 h [4, 9]: 370 µg/mL; solubility at 24 h [4, 9]: 330 µg/mL

From US20260335314A1, “CRYSTALLINE SALTS OR AMORPHOUS FORMS OF 2-((1H-PYRAZOL-3-YL)METHYL)-6-((6-AMINOPYRIDIN-2-YL)METHYL)-4-METHYL-4,6-DIHYDRO -5H-THIAZOLO[5',4':4,5]PYRROLO[2,3-D]PYRIDAZIN-5-ONE” (Agios Pharmaceuticals, Inc., priority 2023, published 2026)
